# Structures can show the parent of a compound that is named as a salt.
# System: eNOS promoter
# Test: Activation of eNOS transcription (eNOS promoter firefly luciferase reporter gene assay)
# Format: cell-based
# Conditions: human endothelial cell line stably transfected with eNOS promoter-luciferase construct, 18 h incubation; read-out: EC50 values of transcription induction ratios (TIR)
# Protocol: Activation of eNOS transcription was measured as described in detail by Li et al., “Activation of protein kinase C alpha and/or epsilon enhances transcription of the human endothelial nitric oxide synthase gene”, Mol. Pharmacol. 53 (1998) 630. Briefly, a 3.5 kB long fragment 5′ of the starting codon of the eNOS gene was cloned, sequenced and cloned in firefly luciferase expression plasmids to monitor activation of the eNOS promoter by reporter gene activity. A human endothelial cell line stable transfected and expressing this promoter-reporter construct was used for compound testing. Cells were incubated for 18 h with the compounds.
# All compounds were dissolved in sterile dimethyl sulfoxide (DMSO). A final concentration of 0.5% DMSO in complete medium was allowed. Induction of reporter gene expression in these cells was measured using a standard luciferase assay system (Promega, Cat. No. E150) according to the manufacturer's instructions. Luciferase induction in cells incubated with compounds were compared to those incubated with solvent alone. The ratio of both activities (transcription induction ratio, TIR) was plotted as a function of compound concentration. Typically, TIR values started at low concentrations at a ratio of 1, indicating no compound effect, and extended up to a maximum TIR value TIR(max) which indicates the increase of the eNOS transcription. EC50 values of transcription induction ratios as a function of compound concentration were determined graphically.
row,SMILES,EC50
1,"CCOC(=O)ONC(=N)c1ccc2nc(-c3ccc(F)cc3)cn2c1 [Example 60, 2-(4-Fluoro-phenyl)-N-ethoxycarbonyloxy-imidazo[1,2-a]pyridine-6-carboxamidine]",< 500 nM
2,"COC(=O)c1ccc2nc(-c3cccc(Br)c3)cn2c1 [Example 24, 2-(3-Bromo-phenyl)-imidazo[1,2-a]pyridine-6-carboxylic acid methyl ester]",< 500 nM
3,"COC(=O)c1ccc2nc(-c3ccc(C)cc3C)cn2c1 [Example 25, 2-(2,4-Dimethyl-phenyl)-imidazo[1,2-a]pyridine-6-carboxylic acid methyl ester]",< 500 nM
4,"COC(=O)c1ccc2nc(-c3cccc(F)c3)cn2c1 [Example 14, 2-(3-Fluoro-phenyl)-imidazo[1,2-a]pyridine-6-carboxylic acid methyl ester]",< 500 nM
5,"COC(=O)c1ccc2nc(-c3ccc(N)cc3)cn2c1 [Example 44, 2-(4-Amino-phenyl)-imidazo[1,2-a]pyridine-6-carboxylic acid methyl ester]",< 500 nM
6,"N=C(NO)c1ccc2nc(-c3ccc(F)cc3)cn2c1 [Example 56, 2-(4-Fluoro-phenyl)-N-hydroxy-imidazo[1,2-a]pyridine-6-carboxamidine]",< 500 nM
7,"Cc1ccc(-c2cn3cc(C#N)ccc3n2)cc1 [Example 54, 2-p-Tolyl-imidazo[1,2-a]pyridine-6-carbonitrile]",< 500 nM
8,"Cc1ccc(-c2cn3cc(/C(N)=N/O)ccc3n2)cc1 [Example 57, N-Hydroxy-2-p-tolyl-imidazo[1,2-a]pyridine-6-carboxamidine]",< 500 nM
9,"COC(=O)c1ccc2nc(-c3ccccc3F)cn2c1 [Example 5, 2-(2-Fluoro-phenyl)-imidazo[1,2-a]pyridine-6-carboxylic acid methyl ester]",< 500 nM
10,"CCN(CC)c1ccc(-c2cn3cc(C#N)ccc3n2)cc1 [Example 53, 2-(4-Diethylamino-phenyl)-imidazo[1,2-a]pyridine-6-carbonitrile trifluoroacetic acid salt]",< 500 nM
11,"COC(=O)c1ccc2nc(-c3ccc([N+](=O)[O-])cc3)cn2c1 [Example 38, 2-(4-Nitro-phenyl)-imidazo[1,2-a]pyridine-6-carboxylic acid methyl ester]",< 500 nM
12,"COC(=O)c1ccc2nc(-c3ccccc3Cl)cn2c1 [Example 20, 2-(2-Chloro-phenyl)-imidazo[1,2-a]pyridine-6-carboxylic acid methyl ester]",< 500 nM
13,"COC(=O)c1ccc2nc(-c3ccccc3)cn2c1 [Example 13, 2-Phenyl-imidazo[1,2-a]pyridine-6-carboxylic acid methyl ester]",< 500 nM
14,"COC(=O)c1ccc2nc(-c3ccc(Br)cc3)cn2c1 [Example 12, 2-(4-Bromo-phenyl)-imidazo[1,2-a]pyridine-6-carboxylic acid methyl ester]",< 500 nM
15,"COC(=O)c1ccc2nc(-c3cccc(C#N)c3)cn2c1 [Example 23, 2-(3-Cyano-phenyl)-imidazo[1,2-a]pyridine-6-carboxylic acid methyl ester]",< 500 nM
16,"Fc1ccc(-c2cn3cc(Br)ccc3n2)cc1 [Example 61, 6-Bromo-2-(4-fluoro-phenyl)-imidazo[1,2-a]pyridine]",< 500 nM
17,"COC(=O)c1ccc2nc(-c3ccc(Br)c(S(N)(=O)=O)c3)cn2c1 [Example 21, 2-(4-Bromo-3-sulfamoyl-phenyl)-imidazo[1,2-a]pyridine-6-carboxylic acid methyl ester]",< 500 nM
18,"COC(=O)c1ccc2nc(-c3cc(F)cc(F)c3)cn2c1 [Example 32, 2-(3,5-Difluoro-phenyl)-imidazo[1,2-a]pyridine-6-carboxylic acid methyl ester]",< 500 nM
19,"COC(=O)c1ccc2nc(-c3cccc([N+](=O)[O-])c3)cn2c1 [Example 8, 2-(3-Nitro-phenyl)-imidazo[1,2-a]pyridine-6-carboxylic acid methyl ester]",< 500 nM
20,"COC(=O)c1ccc2nc(-c3cccc(C(F)(F)F)c3)cn2c1 [Example 33, 2-(3-Trifluoromethyl-phenyl)-imidazo[1,2-a]pyridine-6-carboxylic acid methyl ester]",< 500 nM
21,"N#Cc1ccc2nc(-c3ccc(F)cc3)cn2c1 [Example 52, 2-(4-Fluoro-phenyl)-imidazo[1,2-a]pyridine-6-carbonitrile]",< 500 nM
22,"Nc1ccc2nc(-c3ccc(F)cc3)cn2c1 [Example 66, 2-(4-Fluoro-phenyl)-imidazo[1,2-a]pyridin-6-ylamine]",< 500 nM
23,"COC(=O)c1ccc2nc(-c3cccc(Cl)c3)cn2c1 [Example 31, 2-(3-Chloro-phenyl)-imidazo[1,2-a]pyridine-6-carboxylic acid methyl ester]",< 500 nM

# Continued, values first:
row,EC50,SMILES
1,< 500 nM,"O=CNc1ccc2nc(-c3ccc(F)cc3)cn2c1 [Example 67, N-[2-(4-Fluoro-phenyl)-imidazo[1,2-a]pyridin-6-yl]-formamide]"
2,< 500 nM,"COC(=O)c1ccc2nc(-c3ccc(C(F)(F)F)cc3)cn2c1 [Example 15, 2-(4-Trifluoromethyl-phenyl)-imidazo[1,2-a]pyridine-6-carboxylic acid methyl ester]"
3,< 500 nM,"COC(=O)c1ccc2nc(-c3ccc(F)c(F)c3)cn2c1 [Example 19, 2-(3,4-Difluoro-phenyl)-imidazo[1,2-a]pyridine-6-carboxylic acid methyl ester]"
4,< 500 nM,"COC(=O)c1ccc2nc(-c3ccc(F)cc3)cn2c1 [Example 1, 2-(4-Fluoro-phenyl)-imidazo[1,2-a]pyridine-6-carboxylic acid methyl ester]"
5,< 500 nM,"Cc1ccc(-c2cn3cc(C(=O)O)ccc3n2)cc1 [Example 46, 2-p-Tolyl-imidazo[1,2-a]pyridine-6-carboxylic acid]"
6,< 500 nM,"COC(=O)c1ccc2nc(-c3ccc(OC)cc3)cn2c1 [Example 10, 2-(4-Methoxy-phenyl)-imidazo[1,2-a]pyridine-6-carboxylic acid methyl ester]"
7,< 500 nM,"COC(=O)c1ccc2nc(-c3ccc(Br)cc3)c(C)n2c1 [Example 2, 2-(4-Bromo-phenyl)-3-methyl-imidazo[1,2-a]pyridine-6-carboxylic acid methyl ester]"
8,< 500 nM,"COC(=O)c1ccc2nc(-c3ccc(Cl)cc3Cl)cn2c1 [Example 28, 2-(2,4-Dichloro-phenyl)-imidazo[1,2-a]pyridine-6-carboxylic acid methyl ester]"
9,< 500 nM,"COC(=O)c1ccc2nc(-c3ccc(OC(F)(F)F)cc3)cn2c1 [Example 16, 2-(4-Trifluoromethoxy-phenyl)-imidazo[1,2-a]pyridine-6-carboxylic acid methyl ester]"
10,< 500 nM,"COC(=O)c1ccc2nc(-c3ccc4c(c3)OCCO4)cn2c1 [Example 34, 2-(2,3-Dihydro-benzo[1,4]dioxin-6-yl)-imidazo[1,2-a]pyridine-6-carboxylic acid methyl ester]"
11,< 500 nM,"COC(=O)c1ccc2nc(-c3ccccc3)c(C)n2c1 [Example 3, 3-Methyl-2-phenyl-imidazo[1,2-a]pyridine-6-carboxylic acid methyl ester]"
12,< 500 nM,"COC(=O)c1ccc2nc(-c3ccc(-c4ccccc4)cc3)cn2c1 [Example 37, 2-Biphenyl-4-yl-imidazo[1,2-a]pyridine-6-carboxylic acid methyl ester]"
13,< 500 nM,"COC(=O)c1ccc2nc(-c3ccc(C)cc3)cn2c1 [Example 7, 2-p-Tolyl-imidazo[1,2-a]pyridine-6-carboxylic acid methyl ester]"
14,< 500 nM,"CCN(CC)c1ccc(-c2cn3cc(C(=O)OC)ccc3n2)cc1 [Example 17, 2-(4-Diethylamino-phenyl)-imidazo[1,2-a]pyridine-6-carboxylic acid methyl ester]"
15,< 500 nM,"COC(=O)c1ccc2nc3c(n2c1)Cc1ccccc1-3 [Example 42, 11H-Indeno[1′,2′:4,5]imidazo[1,2-a]pyridine-8-carboxylic acid methyl ester]"

# — patent publication US8399476B2, “Imidazo[1,2-a]pyridines and their use as pharmaceuticals” (Sanofi, priority 2007, dated 2013)
